How the values were obtained:
[1] = Acid dissociation constant (pKa) by photometric titration in aqueous media; format: physicochemical
Protocol: The Acid Dissociation Constant of the EE-β-CD complex in aqueous media was determined.
In aqueous solution, the ethinyl estradiol-β-cyclodextrin complex dissociates into its components according to the law of mass action. […] The pKa was measured by a photometric titration method following the guidance given in the Environmental Assessment Technical Handbook.

[2] = format: physicochemical
Protocol: The molar content of each degradation products is expressed relatively to the initial molar content of ethinyl estradiol that was added to each formulation. Four formulations as well as the pure ethinyl estradiol and the ethinyl estradiol β-cyclodextrin complex were investigated.

Molecule | acid dissociation constant pKa [1] | pKa ([1]; acid dissociation constant pKa) | total known degradation products (% of initial content of EE) [2]
C#C[C@]1(O)CC[C@H]2[C@@H]3CCc4cc(O)ccc4[C@H]3CC[C@@]21C [EE, ethinyl estradiol] | approx. 10.25 | 10.25 ± 0.04 | 
ethinyl estradiol-β-Cyclodextrin complex [EE-β-CD] |  |  | 0.385 % of initial content of EE
